Read-outs that look alike come from different tables or passages of the source. Values belong to the molecule of their own block, whether it stands above or below them.
Columns and labels:
[1] = Partition coefficient of triphenylphosphine between toluene and water; format: physicochemical
From the text: Rhodium, the other component of the catalyst, exists primarily as rhodium (I) hydrido carbonyl bis (triphenylphosphine) complex and accompanies the triphenylphosphine with a similar partition coefficient.

[2] = format: physicochemical
Experimental: Partition coefficients also were determined by the same procedures for using the inert organic solvents 1-decanol (alcohol), isobutyl isobutyrate (ester, IBIB), 2,2,4-trimethyl-1,3-pentanediol monoisobutyrate (alcohol ester, TMPD-MIB), and dimethyl terphthalate (aromatic diester, DMT).

[3] = Solvent partition coefficient into water, with and without 3-FTHF co-solvent (Examples 45-56); format: physicochemical; details: no co-solvent; H2O:(S + CS) 1:1
From the text: These examples include materials which could act as solvents for the reaction and extraction.

[4] = Hydration equilibrium 3-FTHF/3-DHMTHF in water by proton nuclear magnetic resonance; format: physicochemical
Experimental: The maximum density shown in Table I corresponds approximately to the composition for 3-DHMTHF. […] Confirmation of the formation of 3-DHMTHF when 3-FTHF is added to water comes from proton Nuclear Magnetic Resonance spectroscopy. At room temperature, 50 weight percent solutions of aqueous 3-FTHF show two components: 79 mole percent 3-DHMTHF and only 21 mole percent 3-FTHF. Furthermore, changing the water concentration either directly or by using water miscible solvents reversibly changes the 3-DHMTHF:3-FTHF mole ratio indicating a rapidly established equilibrium between the two components as well as showing their relative stability. The relative amounts of 3-FTHF and 3-DHMTHF at varying water/3-FTHF concentrations as determined by proton nuclear magnetic resonance spectroscopy are shown in Table II wherein the values given for "Water", "3-FTHF" and "Solvent" are weight percentages based on the total weight of the 3 component composition and "Solvent" refers to CD3 COCD3 (NMR solvent).
In Table II the value given for the 3-FTHF component is the amount of 3-FTHF dissolved in the composition although in aqueous solution it exists both as 3-FTHF and 3-DHMTHF. Some of the 3-FTHF in the water solution also exists in the form of an acetal, e.g., depending on the concentration, up to about 70 mole percent (at very high concentrations) but usually only about 0.5 mole percent (at 50 weight percent concentration) of the 3-FTHF is in the form of an acetal having the structure: [drawing 4] wherein n is 2.

[5] = 3-FTHF solubility in solvent; format: physicochemical
Experimental: Partition coefficients also were determined by the same procedures for using the inert organic solvents 1-decanol (alcohol), isobutyl isobutyrate (ester, IBIB), 2,2,4-trimethyl-1,3-pentanediol monoisobutyrate (alcohol ester, TMPD-MIB), and dimethyl terphthalate (aromatic diester, DMT). The 3-FTHF:Solvent:Water volume ratios used in each of Examples 37-44 was 3:3:4. The partition coefficients are shown in Table VI wherein the values specified for 3-FTHF Solubility in Solvent are weight percentages, the values given for Temp are the temperatures (° C.), K3FTHF is the partition coefficient for 3-FTHF determined as described above and Ksolvent is the coefficient for the solvent utilized in each example determined form its solubility in the two phase and affected by the presence of the 3-FTHF substrate.

[6] = Share of diol, hemiacetal or acetal in aqueous solution; format: physicochemical
[7] = 3-FTHF:Solvent:Water 3:3:4 by volume, 24.1-25.7 °C
[8] = 50 weight percent aqueous 3-FTHF, room temperature
[9] = Water 6.1, 3-FTHF 6.3, CD3COCD3 87.6 wt %
[10] = Water 10.4, 3-FTHF 13.8, CD3COCD3 75.8 wt %
[11] = Water 15.2, 3-FTHF 20.2, CD3COCD3 64.6 wt %
[12] = Water 19.8, 3-FTHF 26.2, CD3COCD3 54.0 wt %
[13] = Water 24.1, 3-FTHF 32.0, CD3COCD3 43.9 wt %
[14] = Water 31.4, 3-FTHF 43.5, CD3COCD3 25.1 wt %
[15] = Water 36.9, 3-FTHF 46.6, CD3COCD3 16.5 wt %
[16] = Water 37.6, 3-FTHF 54.4, CD3COCD3 8.0 wt %
[17] = Water 45.0, 3-FTHF 55.0, CD3COCD3 0.0 wt %

Molecule: c1ccc(P(c2ccccc2)c2ccccc2)cc1 [triphenylphosphine]
effective partition coefficient of triphenylphosphine ([1]; 10 percent emulsion): 0.095 | partition coefficient of triphenylphosphine between toluene and water ([1]; Example 57, 50:1 triphenylphosphine:toluene, 1:1 water:triphenylphosphine+toluene by volume): 0.00433 | partition coefficient of triphenylphosphine ([1]; aqueous/toluene, room temperature, 50 weight percent water in aqueous phase): 0.0043

Molecule: Cc1ccc(C)cc1 [p-Xylene, p-xylene, reference compound]
KSolvent partition coefficient [2, 7]: 0.0074 | Solvent Partition Coefficient [3]: 0.00015

KSolvent partition coefficient [2, 7]: 0.00772 | Solvent Partition Coefficient [3]: 0.00116
Molecule: CC(C)COC(=O)C(C)C [IBIB, isobutyl isobutyrate, reference compound]

KSolvent partition coefficient [2]: 0.00481
Molecule: 2,2,4-trimethyl-1,3-pentanediol monoisobutyrate [TMPD-MIB, reference compound]

KSolvent partition coefficient [2]: 0.02526
Molecule: COC(=O)c1ccc(C(=O)OC)cc1 [DMT, dimethyl terphthalate, reference compound]

Molecule: COC(=O)c1ccccc1C(=O)OC [DMP, dimethyl phthalate]
Solvent Partition Coefficient [3]: 0.00731

KSolvent partition coefficient [2]: 0.00746
Molecule: CC(C)CC(C)(C)C [Isooctane, isooctane, reference compound]

Molecule: CC(C)c1cccc(C(C)C)c1 [DIPB, 1,3-diisopropylbenzene, reference compound]
KSolvent partition coefficient [2, 7]: 0.01904

Mole Percent in equilibrium [4, 8]: 21 mole percent | Mole Percent in equilibrium [4, 9]: 78.4 Mole Percent | Mole Percent in equilibrium [4, 10]: 68.8 Mole Percent | Mole Percent in equilibrium [4, 11]: 58.1 Mole Percent | Mole Percent in equilibrium [4, 12]: 51.1 Mole Percent | Mole Percent in equilibrium [4, 13]: 43.4 Mole Percent | Mole Percent in equilibrium [4, 14]: 33.3 Mole Percent | Mole Percent in equilibrium [4, 15]: 28.8 Mole Percent | Mole Percent in equilibrium [4, 16]: 24.9 Mole Percent | Mole Percent in equilibrium [4, 17]: 21.0 Mole Percent | 3-FTHF Solubility in Solvent ([5]; in 1-decanol): 100 weight percentages | 3-FTHF Solubility in Solvent ([5]; in DIPB): 100 weight percentages | 3-FTHF Solubility in Solvent ([5]; in DMT): 100 weight percentages | 3-FTHF Solubility in Solvent ([5]; in IBIB): 100 weight percentages | 3-FTHF Solubility in Solvent ([5]; in TMPD-MIB): 100 weight percentages | 3-FTHF Solubility in Solvent ([5]; in isooctane): 2.36 weight percentages | 3-FTHF Solubility in Solvent ([5]; in n-decane): 0.93 weight percentages | 3-FTHF Solubility in Solvent ([5]; in p-xylene): 100 weight percentages | 3-FTHF Solubility in Solvent ([5]; in toluene): 100 weight percentages | 3-FTHF in the form of an acetal (n is 2) ([6]; at 50 weight percent concentration): about 0.5 mole percent | 3-FTHF in the form of an acetal (n is 2) ([6]; at very high concentrations): up to 70 mole percent
Molecule: O=CC1CCOC1 (stereo not shown) [3-FTHF, 3-formyltetrahydrofuran]

KSolvent partition coefficient [2, 7]: 0.01695 | Solvent Partition Coefficient [3]: 0.00028
Molecule: CCCCCCCCCCO [1-Decanol, 1-decanol, reference compound]

Mole Percent in equilibrium [4, 8]: 79 mole percent | Mole Percent in equilibrium [4, 9]: 21.6 Mole Percent | Mole Percent in equilibrium [4, 10]: 31.2 Mole Percent | Mole Percent in equilibrium [4, 11]: 41.9 Mole Percent | Mole Percent in equilibrium [4, 12]: 48.9 Mole Percent | Mole Percent in equilibrium [4, 13]: 56.6 Mole Percent | Mole Percent in equilibrium [4, 14]: 66.7 Mole Percent | Mole Percent in equilibrium [4, 15]: 71.2 Mole Percent | Mole Percent in equilibrium [4, 16]: 75.1 Mole Percent | Mole Percent in equilibrium [4, 17]: 79.0 Mole Percent
Molecule: OC(O)C1CCOC1 (stereo not shown) [3-DHMTHF, 3-Dihydroxymethyltetrahydrofuran]

KSolvent partition coefficient [2]: 0.00661
Molecule: CCCCCCCCCC [n-Decane, decane, reference compound]
